Measurements published in patent US20220193029A1, “BRYOSTATIN COMPOUNDS FOR ENHANCEMENT OF IMMUNOTHERAPY” (priority 2019, published 2022).

Legend:
PKCα = target: T1, PKCα (Homo sapiens, UniProt P17252); test: cell-free competitive PKC binding assay with [3H]-phorbol dibutyrate; conditions: competition with [3H]-PDBu, recombinant human PKC isoform
T1 construct: purchased Invitrogen
Description: (§1) Because a prerequisite for PKC pathway involvement is binding to PKC, compounds were initially evaluated for PKC affinity in a cell-free competitive binding assay with tritiated phorbol dibutyrate ([^3H]-PDBu). Assays were performed with representative members of both the conventional (PKCα) and novel (PKCδ) PKC families. Subsequently, compounds were assayed for PKC activation in living cells using an isoform translocation assay.
(§2) To a 50 mL polypropylene tube was added Tris-HCl (pH 7.4, 1 M, 1 mL), KCl (1 M, 2 mL), CaCl2) (0.1 M, 30 μL), and bovine serum albumin (BSA, 40 mg, Sigma-Aldrich). This mixture was diluted to 20 mL with deionized H2O and mixed gently. The buffer was stored on ice until use.
(§3) For every two assays, 3.5 mg phosphatidylserine (Avanti Polar Lipids, porcine, 25 mg/mL CHCl3 solution) was concentrated by removing chloroform under a stream of nitrogen followed by reduced pressure. The solid PS was suspended as vesicles in freshly prepared PKC binding assay buffer (3.5 mL) by sonicating six times for 30 sec, with a 30 sec rest between sonications (Branson Sonifier 250, power=2, 50% duty cycle). The resulting milky cloudy mixture (1 mg/mL) was stored on ice until use.
(§4) Assay PKC was prepared by dissolving a 4 μg aliquot of the indicated recombinant human PKC isoform (Invitrogen) into 11.6 mL of PKC binding assay buffer (this amount is sufficient for two assays). The diluted PKC was stored on ice for immediate use.
(§5) ^3H-PDBu (American Radiolabeled Chemicals, Inc.; 1 mCi/mL acetone solution; specific activity: 20 Ci/mmol) was diluted […] with DMSO. The resulting 500 nM stock solution was further diluted with DMSO to 30 nM.
(§6) Compound dilutions were prepared by serially diluting from a chosen “high” concentration by factors of 3 or 4.
(§7) To a polypropylene tube was added 3.3 mL of 1 mg/mL PS vesicles solution, 11 mL of PKC isoform solution, and 1.1 mL of 30 nM ^3H-PDBu solution were added. The resulting solution was vortexed to mix and stored on ice.
(§8) Materials: • Glass-fiber filters (Whatman GF/B) were prepared by soaking them in a solution of aqueous polyethyleneimine (10% by vol, 18 mL) in deionized water (600 mL) for ≥1 h. • 500 mL “rinsing buffer” of 20 mM Tris, pH 7.4 was cooled on ice for the duration of the incubation period and for the remainder of the assay.
Triplicate data points were obtained for each analog concentration. For each data point, 280 μL of “Master Mix” Solution and 20 μL of analog compound at a specified concentration were added to a polypropylene tube. […] Maximal ^3H-PDBu binding was assessed in triplicate by substitution of the analog compound with 20 μL DMSO. The solutions were vortexed to mix, incubated at 37° C. for 10 min, and incubated on ice for at least 30 min prior to filtration. Using a Brandel Harvester, the assay contents from each polypropylene tube were vacuum-filtered through polyethylenimine-soaked filters, washing with rinsing buffer (3×) and drying first under vacuum for 5 min and then under ambient conditions for ≥2 h. The resulting filters had circular perforations for each data point, which were removed with forceps and placed in a scintillation vial. Scintillation vials were filled with Bio-Safe II scintillation fluid (5 mL) and measured for radioactivity using a Beckman LS 6000SC scintillation counter. Counts per minute (cpm) were averaged for each triplicate dilution. The data were plotted—cpm vs. log(concentration)—using Prism® by GraphPad Software and an IC50 was determined using that program's built-in one-site competition least squares regression function. Ki values were calculated using the equation: Ki=IC50/(1+([3H−PDBu]/Kd)). The Kd of ^3H-PDBu for PKC isoforms was measured separately via saturation binding experiments under identical conditions.

PKCδ = target: T2, PKCδ (Homo sapiens, UniProt Q05655); test: as above; conditions: competition with [3H]-PDBu, recombinant human PKC isoform
T2 construct: purchased Invitrogen
T2 sequence (Q05655 whole entry, canonical isoform): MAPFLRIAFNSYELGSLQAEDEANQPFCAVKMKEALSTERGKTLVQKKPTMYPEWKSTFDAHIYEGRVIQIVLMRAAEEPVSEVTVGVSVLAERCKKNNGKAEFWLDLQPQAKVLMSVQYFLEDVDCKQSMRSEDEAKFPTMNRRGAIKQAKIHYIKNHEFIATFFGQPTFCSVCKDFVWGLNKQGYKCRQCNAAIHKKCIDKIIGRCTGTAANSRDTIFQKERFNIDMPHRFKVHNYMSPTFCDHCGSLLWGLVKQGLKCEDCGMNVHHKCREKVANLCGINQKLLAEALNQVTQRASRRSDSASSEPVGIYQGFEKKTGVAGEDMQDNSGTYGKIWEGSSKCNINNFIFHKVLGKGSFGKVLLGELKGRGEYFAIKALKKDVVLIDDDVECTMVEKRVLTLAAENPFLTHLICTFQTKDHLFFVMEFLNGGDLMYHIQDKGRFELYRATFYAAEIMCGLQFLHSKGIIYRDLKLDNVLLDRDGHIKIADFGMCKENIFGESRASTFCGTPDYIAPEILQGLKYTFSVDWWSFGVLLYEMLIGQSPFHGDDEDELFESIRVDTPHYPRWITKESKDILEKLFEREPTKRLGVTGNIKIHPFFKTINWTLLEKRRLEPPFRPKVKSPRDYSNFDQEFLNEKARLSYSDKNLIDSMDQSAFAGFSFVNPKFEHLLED
Description: as §1, §2, §3, §4, §5, §6, §7, §8
Triplicate data points were obtained for each analog concentration. For each data point, 280 μL of “Master Mix” Solution and 20 μL of analog compound at a specified concentration were added to a polypropylene tube. […] Maximal ^3H-PDBu binding was assessed in triplicate by substitution of the analog compound with 20 μL DMSO. The solutions were vortexed to mix, incubated at 37° C. for 10 min, and incubated on ice for at least 30 min prior to filtration. Using a Brandel Harvester, the assay contents from each polypropylene tube were vacuum-filtered through polyethylenimine-soaked filters, washing with rinsing buffer (3×) and drying first under vacuum for 5 min and then under ambient conditions for ≥2 h. The resulting filters had circular perforations for each data point, which were removed with forceps and placed in a scintillation vial. Scintillation vials were filled with Bio-Safe II scintillation fluid (5 mL) and measured for radioactivity using a Beckman LS 6000SC scintillation counter. Counts per minute (cpm) were averaged for each triplicate dilution. The data were plotted—cpm vs. log(concentration)—using Prism® by GraphPad Software and an IC50 was determined using that program's built-in one-site competition least squares regression function. […] The Kd of ^3H-PDBu for PKC isoforms was measured separately via saturation binding experiments under identical conditions.

PKCδ-GFP fusion protein = test: PKCδ-GFP translocation assay in living CHO-k1 cells (confocal microscopy); type: cell-based, Chinese hamster; conditions: for concentration* (minimum effective concentration required to induce translocation of PKC-GFP to the membrane) / % Translocation: CHO-k1 cells; for % Translocation: maximum translocation of PKCδ-GFP to the plasma membrane at the concentration printed in the same cell, SUW212: only brief translocation observed
Description: as §1
Chinese hamster ovary factor K1 (CHO-k1, ATCC) cells were cultured in F-12 Kaighn's media (Hyclone, 10% fetal bovine serum, 1% penicillin/streptomycin added, referred to as F-12+/+ below) at 37° C. in an incubator (5% CO2). Cell cultures were maintained by splitting cells 1:3 when they reached ˜75-100% confluence (every 2-3 days) as follows:
1 mL of the cell suspension was then added to 9 mL of fresh F-12+/+ and the sample was sub-cultured until reaching confluence (˜2-3 days).
Cells were counted using a Countess II Automated Cell Counter (Fisher). The cell suspension was diluted to 240,000 cells/mL with fresh F-12+/+ and 2.5 mL of this diluted stock was added to one well in a 6-well plate. The cells were then cultured for 24 hours.
F-12+/+ was aspirated and cells were washed with F-12−/−. 2 mL of fresh F-12−/− was then added to each well, taking care not to disturb adherent cells. For each well of CHO-k1 cells, 12.5 μL Lipofectamine 2000 reagent (Invitrogen) was added to 250 μL Opti-MEM reduced serum media (Invitrogen) in a polypropylene tube and incubated for 20 minutes at RT. Meanwhile, for each well, 4 μg of PKCδ-GFP pDNA and 250 μL Opti-MEM reduced serum media was added to a separate polypropylene tube. 250 μL of the Lipofectamine 2000 suspension was added to the DNA suspension and the solution incubated for 30 minutes at RT. 500 μL of the Lipofectamine/DNA suspension was added to the respective wells of the 6-well plate. The cells were then incubated at 37° C. (5% CO2) for ˜24 hrs.
F-12+/+ was aspirated and cells were washed with F-12−/−. 2.4 mL of fresh F-12−/− was then added to each well, taking care not to disturb adherent cells. A 4 μg aliquot of PKCδ-GFP pDNA was added to PBS (pH 5.5, final volume 100 μL). 5.6 μL of DA 13:11 (2 mM stock in DMSO) was then added to the DNA solution, and the mixture was gently mixed (by flicking) for 20 seconds, at which point it was added directly to the respective wells of the 6-well plate. The cells were then incubated at 37° C. (5% C02) for ˜24 hrs.
After incubation, the media was aspirated and cells were washed with PBS (2.0 mL) and trypsinized (500 μL). The cell suspension was then diluted with 2.0 mL F-12+/+. 200 μL aliquots were added to 3 wells of a Lab-Tek II 4-well chambered coverglass slide (Fisher), producing 4 slides in total, each with three wells of cells. The cell suspension was directly diluted with 600 μL of additional F-12+/+. The resulting samples were incubated for ˜24 hrs. prior to imaging.
Fluorescent images were obtained using a Leica SP8 White Light Confocal microscope and the Leica AF software package. Prior to analysis, media was aspirated and 800 μL of PBS (Hyclone, without Ca^2+ or Mg^2+) supplemented with glucose (10 mM) was added to each well of the chambered coverglass slide. Bryostatin and bryostatin analogs were diluted to the appropriate concentration in 200 μL of 10 mM glucose in PBS. Cells were located for imaging and data was recorded for three wells in parallel, imaging at predetermined positions in each well using adaptive focus control. Cells were imaged at 30 second intervals following the addition of compound (set to t=0) for 20-40 minutes. Data were recorded at room temperature. Images were exported as .lif files and fluorescence intensity was analyzed using FIJI (NIH) software.

[1] = system: CD22 surface expression in NALM6 cells; test: CD22 surface expression assay by flow cytometry; type: cell-based, human; conditions: Homo sapiens, NALM-6; At 1 nM, relative to DMSO control; NALM6 cells; read-out: Fold increase CD22 expression
Description: Cell cultures were maintained between 4×10^5 and 3×10^6 cells/mL according to vendor instructions.
Cell suspension from a confluent T75 flask (Fisher) was transferred to a 15 mL falcon tube and centrifuged at 1100 rpm for 7 minutes. […] Cells were counted using a Countess II Automated Cell Counter (Fisher). […] 199 μL of this stock was added to 24 wells (enough for triplicate measurements for 8 different experimental conditions) in a 96-well plate. […] 1 μL of DMSO or the appropriate stock solution of compound in DMSO was added to each well. Cells were incubated for 24 hours, at which point the cell suspensions were transferred to 1.5 mL Eppendorf tubes and diluted with 1.0 mL of PBS (Hyclone, without Ca^2+ or Mg^2+). Samples were centrifuged at 2000 rpm for 5 min at RT. […] Cells were sub-cultured between 2×10^5 and 3×10^6 cells/mL in 24-well plates for an additional 24 hrs-7 days, at which point CD22 surface expression was assayed by flow cytometry.
Cells from one well were counted using a Countess II Automated Cell Counter (Fisher). ˜200,000-300,000 cells from each well were added to 1.5 mL Eppendorf tubes containing PBS (final volume ˜1.2 mL). The cell suspensions were centrifuged at 1500 rpm for 7 minutes at 4° C. The supernatant was aspirated, and the cell pellet was resuspended in 99 μL of pre-chilled FACS buffer (0.5% w/v BSA in PBS). […] Samples were then diluted with an additional 1.0 mL of FACS buffer and centrifuged at 1500 rpm for 7 minutes at 4° C. […] Cells were stained with DAPI and CD22 surface expression was analyzed using the FACScan Analyzer at the Stanford Shared FACS Facility. Data analysis was performed using FlowJo and Microsoft Excel.

| Structure (SMILES) | Ki (PKCα) [nM] | Ki (PKCδ) [nM] | concentration* (minimum effective concentration required to induce translocation of PKC-GFP to the membrane) (PKCδ-GFP fusion protein) [nM] | sustained translocation of PKC (PKCδ-GFP fusion protein; at up to 1000 nM) | % Translocation (PKCδ-GFP fusion protein) [%] | fold induction at 0.001 µM [1] | cytosolic PKC translocated to the plasma membrane (PKCδ-GFP fusion protein; 200 nM, at 20 minutes) [%] |
| --- | --- | --- | --- | --- | --- | --- | --- |
| CCC/C=C/C=C/C(=O)O[C@H]1/C(=C/C(=O)OC)C[C@H]2C[C@H]([C@@H](C)O)OC(=O)C[C@H](O)C[C@@H]3C[C@H](OC(C)=O)C(C)(C)[C@](O)(C[C@@H]4C[C@H](OC(=O)CN(C)C)C[C@H](/C=C/C(C)(C)[C@]1(O)O2)O4)O3 [SUW211] | 98 | 27 | 1000 | did not achieve sustained translocation | 20 | – | – |
| C=C1CC2C=CC(C)(C)C3(O)OC(CC(=CC(=O)OC)C3OC(=O)C#CCCCCC)CC(C(C)O)OC(=O)CC(O)CC3CC(OC(C)=O)C(C)(C)C(O)(CC(C1)O2)O3 (stereo not shown) [SUW200] | – | – | 200 | – | 70 | 1.73 | – |
| C=CCOC(=O)/C=C1\C[C@H]2C[C@]3(O)O[C@H](C[C@@H](O)CC(=O)O[C@@H]([C@@H](C)O)C[C@@H]4C/C(=C\C(=O)OC)[C@H](OC(=O)/C=C/C=C/CCC)[C@@](O)(O4)C(C)(C)/C=C/[C@@H](C1)O2)C[C@H](OC(C)=O)C3(C)C [SUW230] | 4.2 | 9.4 | 200 | – | 65 | – | – |
| CCCCCC#CC(=O)O[C@H]1/C(=C/C(=O)OC)C[C@H]2C[C@H]([C@@H](C)O)OC(=O)C[C@H](O)C[C@@H]3C[C@H](OC(C)=O)C(C)(C)[C@](O)(C[C@@H]4C[C@H](O)C[C@H](/C=C/C(C)(C)[C@]1(O)O2)O4)O3 [SUW204] | – | – | 200 | – | 25 | – | ~25 |
| CCC/C=C/C=C/C(=O)O[C@H]1/C(=C/C(=O)OC)C[C@H]2C[C@H]([C@@H](C)O)OC(=O)C[C@H](O)C[C@@H]3C[C@H](OC(C)=O)C(C)(C)[C@](O)(C[C@@H]4C/C(=C\C(=O)OCc5ccccc5)C[C@H](/C=C/C(C)(C)[C@]1(O)O2)O4)O3 [SUW220] | 16 | 15 | 1000 | – | 50 | – | – |
